Reference: patent publication US10350262B2, “MCJ agonists and uses therefor” (priority 2015, dated 2019)
“Also recorded” adds a separate entry of the source. No end group written: not given here.

What was measured:
MCF7/ADR cells = experiment: Viable cell count of MCF7/ADR cells (Trypan blue); format: cell-based, human; details: doxorubicin 3 μM, 2 days
Procedure: (§1) FIG. 15A provides results of Western blot analysis for MCJ in MCF7 cells and MCF7/ADR (ADR) cells. Actin was used as loading control. […] Viable cells were counted 2 days later.
(§2) FIG. 16A-B provides graphs showing response to MCJ agonists. […] Cells were harvested 2 days later and viable cells were counted. […] Mice were harvested at day 4. The size of a tumor over time was determined by caliper measurements, and is represented as a percentage relative to the initial size prior to the treatment. p<0.05 as determined by a paired t-test.
(§3) Cell Culture. MCF7 and MCF7/ADR cells were a kind gift from Dr. Ken Cowan (National Cancer Institute, Bethesda, Md.). MCF7/siMCJ cells were generated by stable transfection with a plasmid expressing a shRNA for MCJ (siMCJ) as described in Hatle, K. M., et al., Mol Cell Biol 27, 2952-2966 (2007). All cells were maintained at 37 C, 5% CO2 in RPMI-1640 (Life technologies, Inc., Gaithersburg, Md.) containing 5% FBS.
(§4) Cell count. Cells were trypsinized, washed, and resuspended in medium. Number of viable cells was measured by counting using Trypan blue dye to exclude dead cells (visualized as blue).
(§5) Doxorubicin and peptides treatment in vitro. Doxorubicin (Sigma-Aldrich) was used at 3 μM final concentration. The three different peptides described in the examples (SEQ ID NO: 2, 18 or 6) were resuspended at 10 mM stock concentration in PBS. The peptides were used a different concentration as indicated for each example (1, 10, or 50 μM). Cells were plated the day prior the treatment (18-20 h prior to the treatment). For treatments with peptides only, peptides were added to the plates at the indicated concentrations, and after 2 or 3 days (as indicated for each example) cells were trypsinized, resuspended, and counted. For the treatment with doxorubicin and peptides, cells were pretreated with the corresponding peptide for 4 h prior to adding doxorubicin.
MCF7/ADR cells were incubated (using standard procedures) for three days in media alone or in media plus three different MCJ based polypeptides each at a concentration of 50 μM in media. The cells of set one were incubated in media and served as a control set. The cells of set two were incubated in media that included a 50 μM concentration of a MCJ polypeptide without a targeting agent polypeptide. The amino acid sequence of the N-MCJ polypeptide without a targeting agent polypeptide was […] (SEQ ID NO:2). The cells of set three were incubated in media that included a 50 μM concentration of a TAT-N-MCJ polypeptide. The amino acid sequence of the TAT-N-MCJ polypeptide was: […] (SEQ ID NO:18). […]

[1] = system: mammary tumors in MMTV mice; experiment: Doxorubicin treatment in vivo, mammary tumor size in MMTV mice; set-up: species or system mouse; details: doxorubicin 2 mg/Kg i.p. every other day for two weeks, n=4
Source text: (§6) Mice. […] MCJ KO mice were crossed with the previously described MMTV-PyMT mice [see: Guy, C. T., et. al., Mol Cell Biol 12, 954-961 (1992)] to generate MCJ KO MMTV mice. Wildtype MMTV mice and MCJ KO MMTV mice were used for the experiments. All mice were housed under sterile conditions at the animal care facility at the University of Vermont. The procedures were approved by the University of Vermont Institutional Animal Care and Use Committee.
Doxorubicin and peptides treatment in vivo. MTV mice and MCJ KO MMTV mice were used to assay response to doxorubicin and MCJ peptides. The treatments were initiated around 2.5-3 months of age when the mammary tumor these mice develop reach 300 mm^3. Doxorubicin was administered intreperitoneal in PBS (100 μl per mouse) at a dose of 2 mg/Kg. TAT-N-MCJ-mts peptide (SEQ ID NO: 6) was administered at the time of doxorubicin by a subcutaneous injection in PBS (100 μl per mouse) at a dose of 10 mg/Kg. Administrations of doxorubicin and peptide were performed every other day for the indicated period of time. Perpendicular tumor diameters were measured using a vernier scale caliper and tumor volume estimated using the formula for ellipsoid (width×high×length)/2. […]
The size of a tumor over time was determined by caliper measurements, and is represented as a percentage relative to the initial size prior to the treatment. p<0.05 as determined by a paired t-test.

[2] = system: mammary tumors in MCJ KO MMTV mice; experiment: Doxorubicin and peptide treatment in vivo, mammary tumor size in MCJ KO MMTV mice; set-up: species or system mouse
Procedure: as §2, §6
Doxorubicin and peptides treatment in vivo. MTV mice and MCJ KO MMTV mice were used to assay response to doxorubicin and MCJ peptides. The treatments were initiated around 2.5-3 months of age when the mammary tumor these mice develop reach 300 mm^3. […] Perpendicular tumor diameters were measured using a vernier scale caliper and tumor volume estimated using the formula for ellipsoid (width×high×length)/2. […]
The size of a tumor over time was determined by caliper measurements, and is represented as a percentage relative to the initial size prior to the treatment. p<0.05 as determined by a paired t-test. […]

MCF7 cells = experiment: Viable cell count of MCF7 cells (Trypan blue); format: cell-based, human; details: doxorubicin 3 μM
Source text: as §1, §3, §4, §5
MCF7 cells and MCF7/ADR cells were incubated (using standard procedures) for two days in media alone or in media that included different concentrations of the TAT-N-MCS-MTS polypeptide having the amino acid sequence set forth as: […]

[3] = mouse
Procedure: MCF7/ADR cells were treated with doxorubicin, TAT-N-MCJ-mts peptide alone or in combination. […] Thus, at lower doses, MCJ agonists could overcome chemo-resistance of breast cancer cells in vitro. A study was also performed that tested the effect of the TAT-N-MCJ-mts peptide in combination with chemotherapy in vivo using the MMTV mammary tumor mouse model. […] Therefore MCJ KO MMTV mice were treated with doxorubicin alone or doxorubicin and the TAT-N-MCJ-mts peptide and followed tumor size.

Compound | expansion of cells (viable cells) (MCF7/ADR cells) | tumor size over time [1] | tumor size over time ([2]; doxorubicin 2 mg/Kg i.p. every other day for two weeks, n=4) | tumor size (percentage relative to initial size) ([2]; doxorubicin alone 2 mg/Kg i.p. at day 0, 2 and 3, harvested day 4, n=3) | effect on viable cells (MCF7 cells; 2 days) | cell death (MCF7 cells; vs media alone) | toxicity in vivo (abnormality in treated mice) [3]
COc1cccc2c1C(=O)c1c(O)c3c(c(O)c1C2=O)C[C@@](O)(C(=O)CO)C[C@@H]3O[C@H]1C[C@H](N)[C@H](O)[C@H](C)O1 [doxorubicin] | no effect on the expansion of MCF7/ADR cells | The size of the tumors in MMTV-Py mice was reduced; also recorded: tumor size in MMTV mice decreased over time | continued growing or did not shrink; also recorded: less reduction in tumor size; also recorded: did not decrease, and continued to increase over time | continued growing | sensitive to doxorubicin | significant level of cell death | 
YGKKRRQRRGMAARGVIAPVGESLRYAEYLGTRTWVPKGLKSP [TAT-N-MCJ-MTS] |  |  |  |  |  |  | no obvious abnormality was observed
